Reference: paper PMC10489651, “Six New Phenolic Glycosides from the Seeds of Moringa oleifera Lam. and Their α-Glucosidase Inhibitory Activity” (Molecules, 2023)

Target: α-glucosidase
Experiment: colorimetric α-glucosidase inhibition assay (p-nitrophenyl glucopyranoside substrate, […] nm)
Format: biochemical

IC50 [µM]	Compound
382.8 ± 1.42	C[C@@H]1O[C@@H](Oc2ccc(Cc3cc(CC#N)ccc3O)cc2)[C@H](O)[C@H](O)[C@H]1O [compound 4, 4-(α-L-rhamnopyranosyl) benzyl-1′-hydroxy-4′-phenylacetonitrile]
301 ± 6.22	C[C@@H]1O[C@@H](Oc2ccc(C/C(=N/OS(=O)(=O)O)S[C@@H]3O[C@H](CO)[C@@H](O)[C@H](O)[C@H]3O)cc2)[C@H](O)[C@H](O)[C@H]1O [compound 16, glucomoringin]
